The structures appear in SMILES notation.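 Compound exposure: 48 hours, 5 concentrations, 96-well plates. The concentration for 50% growth inhibition is given as GI50.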 Activity calls are given as the source filed them. No stated cut-off is given here; in the data, active = GI50 up to about 1.1 µM and inactive = higher. Where only a bound is given, the exact number is not on record here.

Among the test systems are SF-268; NCI-H226; MOLT-4; OVCAR-4; A498; CCRF-CEM; IGROV-1; SF-295; Hs-578T; SK-OV-3; MCF7; RPMI-8226; HCT-15; NCI/ADR-RES; DU-145; K562; HL-60; NCI-H460; SR; XF498.
Common to all, as to assay: NCI anticancer screen, dose series, 48 h

Regarding `Cc1cn(C2CC(O)C(Cn3nncc3Cn3ncc(=O)[nH]c3=O)O2)c(=O)[nH]c1=O` (stereo not given), the GI50 in the assay on SF-268, in the assay with NCI-H226, in the assay on MOLT-4, in the assay with OVCAR-4, in the assay on A498 and in the assay on CCRF-CEM was > 100 µM (inactive) in each case. In addition, the GI50 in the assay with IGROV-1 was > 100 µM (inactive); in the assay with SF-295, > 100 µM (inactive); in the assay with Hs-578T it was > 100 µM (inactive); with SK-OV-3, 77.1 µM (inactive); with MCF7 it was > 100 µM (inactive); with RPMI-8226 it was > 100 µM (inactive). The GI50 was above 100 µM in the assay with HCT-15, > 100 µM (inactive) in the assay on NCI/ADR-RES and > 100 µM (inactive) with DU-145.

Take `N#CCCC1C(C#N)C2(Cl)CC1(Cl)C(Cl)=C2Cl` (stereo not given): the GI50 in the assay on SF-268, in the assay with NCI-H226, in the assay with MOLT-4, in the assay with K562, in the assay with HL-60 and in the assay with OVCAR-4 was > 10 µM (inactive) in each case. For the same compound, the GI50 with A498, with CCRF-CEM, in the assay on IGROV-1, in the assay with SF-295, in the assay on Hs-578T and in the assay with NCI-H460 was > 10 µM (inactive) throughout. Besides, the GI50 with SK-OV-3 is > 10 µM (inactive); with MCF7, > 10 µM (inactive); with RPMI-8226 it was > 10 µM (inactive); in the assay on HCT-15 it was above 10 µM; with NCI/ADR-RES, > 10 µM (inactive); in the assay on DU-145, > 10 µM (inactive).

In the case of `CC[N+]1(C)CCC(O)(c2ccc(Cl)cc2)C(C(=O)c2ccc(Cl)cc2)C1` (stereo not given), the GI50 was 24.5 µM (inactive) in the assay on SF-268; 6.34 µM (inactive) in the assay on SR; 23.8 µM (inactive) in the assay on NCI-H226; 13.7 µM (inactive) with MOLT-4; 4.09 µM (inactive) in the assay with K562; 7.83 µM (inactive) with HL-60. In addition, the GI50 in the assay with OVCAR-4 is 29.3 µM (inactive); in the assay with A498, 27.9 µM (inactive); in the assay with CCRF-CEM, 2.74 µM (inactive); with IGROV-1, 18.5 µM (inactive); in the assay on SF-295, > 10 µM (inactive); in the assay with Hs-578T it was 12.5 µM (inactive). The GI50 is 27.5 µM (inactive) with NCI-H460; 14.6 µM (inactive) with SK-OV-3; 1.1 µM (active) in the assay with MCF7; 1.73 µM (inactive) with RPMI-8226; 22 µM in the assay on HCT-15; 24.2 µM (inactive) with NCI/ADR-RES. Besides, the GI50 with DU-145 was 18.7 µM (inactive).

In the case of `CCCCOC(=O)CN1C(=O)c2ccccc2C1=O`, the GI50 in the assay on SF-268, in the assay with SR, with NCI-H226, with MOLT-4, in the assay on HL-60 and in the assay on OVCAR-4 was > 100 µM (inactive) each time. The GI50 in the assay on IGROV-1 is > 100 µM (inactive); in the assay with SF-295, > 100 µM (inactive); in the assay with XF498 it was > 100 µM (inactive); with NCI-H460 it was > 100 µM (inactive); with SK-OV-3, > 100 µM (inactive); in the assay with HCT-15, above 100 µM.

For the compound `C=C(C)C1CC2=C(O1)C(=O)c1ccccc1C2=O` (stereo not drawn) [DEHYDROISO-ALPHA-LAPACHONE], the GI50 with NCI-H226 was > 10 µM (inactive); in the assay with MOLT-4, 10.6 µM (inactive); with K562, 18.6 µM (inactive); in the assay with HL-60, 3.38 µM (inactive); in the assay on OVCAR-4 it was 11.3 µM (inactive); with CCRF-CEM, 16.3 µM (inactive). In addition, the GI50 in the assay on IGROV-1 was 20 µM (inactive); with XF498 it was 17.9 µM (inactive); in the assay with NCI-H460, 17.7 µM (inactive); with SK-OV-3, > 100 µM (inactive); in the assay with RPMI-8226 it was 15.1 µM (inactive); with HCT-15 it was 17.9 µM.

For `O=c1n(CC2CO2)c2ccccc2n1CC1CS1` (stereo not given), the GI50 is 91.8 µM (inactive) in the assay with SF-268; 44.7 µM (inactive) with SR; > 100 µM (inactive) in the assay on NCI-H226; 73.3 µM (inactive) in the assay with MOLT-4; > 100 µM (inactive) in the assay with K562; 11.1 µM (inactive) with HL-60. Also, the GI50 was > 100 µM (inactive) in the assay on OVCAR-4; 63.2 µM (inactive) with CCRF-CEM; > 100 µM (inactive) with IGROV-1; > 100 µM (inactive) in the assay on SF-295; > 100 µM (inactive) in the assay on XF498; > 100 µM (inactive) with NCI-H460. For the same compound, the GI50 is > 10 µM (inactive) in the assay with SK-OV-3, 36.3 µM (inactive) in the assay with RPMI-8226 and above 100 µM with HCT-15.

Take `CCOC(=O)c1csc(NC(=O)CN(C)C)n1`: the GI50 with SF-268, in the assay on SR, in the assay on NCI-H226, in the assay on MOLT-4, in the assay on K562 and with HL-60 was > 100 µM (inactive) in each case. Further, the GI50 in the assay with OVCAR-4, in the assay with A498, in the assay on CCRF-CEM, in the assay with IGROV-1, in the assay on SF-295 and in the assay on Hs-578T was > 100 µM (inactive) throughout. Besides, the GI50 in the assay with NCI-H460 is > 100 µM (inactive); in the assay with SK-OV-3 it was > 100 µM (inactive); in the assay on MCF7, > 100 µM (inactive); with RPMI-8226, > 100 µM (inactive); in the assay on HCT-15, above 100 µM; in the assay on NCI/ADR-RES it was > 100 µM (inactive). Moreover, in the assay with DU-145, the GI50 is > 100 µM (inactive).

In the case of `CN1NC(c2ccccc2)=C(C#N)C(=O)CC1c1ccc(F)cc1` (stereo not given), the GI50 with SF-268, in the assay on SR, in the assay on NCI-H226, with MOLT-4, in the assay with HL-60 and with OVCAR-4 was > 100 µM (inactive) in each case. Further, the GI50 in the assay with A498, in the assay on CCRF-CEM, in the assay with SF-295, in the assay on XF498, with NCI-H460 and in the assay with SK-OV-3 was > 100 µM (inactive) throughout. The GI50 in the assay with RPMI-8226 is > 100 µM (inactive); in the assay with HCT-15, above 100 µM.

For `COC(c1ccc(C(C)(C)C)cc1)(c1ccc(C(C)(C)C)cc1)c1cc(C(O)(c2cc(C(OC)(c3ccc(C(C)(C)C)cc3)c3ccc(C(C)(C)C)cc3)c(C)cc2C)c2cc(C(OC)(c3ccc(C(C)(C)C)cc3)c3ccc(C(C)(C)C)cc3)c(C)cc2C)c(C)cc1C`, the GI50 was > 100 µM (inactive) with SF-268; > 100 µM (inactive) with SR; 92.5 µM (inactive) in the assay with NCI-H226; > 100 µM (inactive) with MOLT-4; > 100 µM (inactive) in the assay with K562; > 100 µM (inactive) in the assay on HL-60. The GI50 with OVCAR-4, in the assay with A498, in the assay on CCRF-CEM, in the assay on IGROV-1, in the assay on SF-295 and in the assay with Hs-578T was > 100 µM (inactive) each time. Further, the GI50 in the assay with NCI-H460 is > 100 µM (inactive); in the assay on SK-OV-3 it was > 100 µM (inactive); in the assay on MCF7, > 100 µM (inactive); in the assay with HCT-15 it was above 100 µM; with NCI/ADR-RES, > 100 µM (inactive); in the assay on DU-145 it was > 100 µM (inactive).

On to `CCOc1ccc(C(C)c2cc3c(cc2OC)OCO3)cc1` (stereo not given), for which the GI50 with SF-268 is 1.05 µM (active); with SR it was 0.0982 µM (active); in the assay on NCI-H226, 0.207 µM (active); with MOLT-4, 0.396 µM (active); with OVCAR-4, > 100 µM (inactive); in the assay on IGROV-1, 2.75 µM (inactive). For the same compound, the GI50 in the assay on SF-295 is 0.0828 µM (active); with XF498, 0.256 µM (active); in the assay on NCI-H460 it was 0.34 µM (active); with SK-OV-3, 0.32 µM (active); in the assay on RPMI-8226, 0.427 µM (active); in the assay with HCT-15 it was 0.299 µM.

As for `CC1(C)CCc2cc3c(-c4ccccc4)cc(=O)oc3cc2O1`, the GI50 in the assay with SF-268, with NCI-H226, in the assay on MOLT-4, in the assay with K562, in the assay on HL-60 and in the assay on A498 was > 100 µM (inactive) each time. In addition, the GI50 with CCRF-CEM was > 100 µM (inactive); in the assay with IGROV-1, > 100 µM (inactive); in the assay on SF-295, 48.3 µM (inactive); in the assay on XF498, 41 µM (inactive); with NCI-H460 it was > 100 µM (inactive); in the assay with SK-OV-3 it was > 100 µM (inactive). Also, the figures for the GI50 with RPMI-8226 and in the assay with HCT-15 were > 100 µM (inactive) and above 100 µM, respectively.

`Cc1ccc(Cl)cc1/N=N/C(=O)NNc1cc(Cl)ccc1C`: the GI50 was 37.7 µM (inactive) in the assay on SR; 20.1 µM (inactive) in the assay with NCI-H226; 13.9 µM (inactive) in the assay on MOLT-4; 24.2 µM (inactive) in the assay with K562; 58.9 µM (inactive) with HL-60; 20.3 µM (inactive) in the assay with A498. Besides, the GI50 in the assay with CCRF-CEM was 10 µM (inactive); in the assay with IGROV-1, 15.3 µM (inactive); in the assay on SF-295 it was 19.4 µM (inactive); in the assay with Hs-578T it was 23.8 µM (inactive); with NCI-H460 it was 18 µM (inactive); in the assay on SK-OV-3, 20.3 µM (inactive). Further, the GI50 in the assay on MCF7 was 27.8 µM (inactive); with RPMI-8226, 19.9 µM (inactive); in the assay on HCT-15, 17.1 µM; with NCI/ADR-RES it was 19.9 µM (inactive); in the assay on DU-145 it was 21.4 µM (inactive).
